Source: patent US20220143050A1, “mTOR Inhibitor” (priority 2019, published 2022)
Where a name gives a salt, the structure may show the parent alone.

How the values were obtained:
Akt [1] = experiment: Phosphorylation of Akt in LPS-stimulated CD14+ monocyte (western blot); assay type: cell-based, human; conditions: 100 ng/mL LPS
LPS-stimulated PBMC = conditions: PBMC treated ex vivo with nucleic acid analog, IFN-α and LPS; FIG. 2
Procedure: In the case of interferon (IFN)-α alone, 10, 100, and 1000 U/mL were used.
Many types of cytokines in the culture supernatant were measured using a Bio-Plex Human Cytokine Panel (which enables measurement at one time).
Ex vivo treatment of the PBMC was performed with a nucleic acid analog, IFN-α, and LPS, and the levels of IL-10 and IL-12p70 in the supernatant were measured.

IFN-λ3 = conditions: hepatitis B patients taking the drug; cited from earlier work
intestinal cell = conditions: in vitro system; cited from earlier work
GSK-3β = experiment: Phosphorylation of GSK-3β in LPS-stimulated CD14+ monocyte (western blot); assay type: cell-based, human; conditions: 2 hours treatment, 100 ng/mL LPS, 2 hours after LPS, FIG. 4E
[2] = test system: liver cancer cell lines (HepG2, PLC/PRF/5, Huh7, Hep3B, SKHep-1, HLE); experiment: Antitumor effect in liver cancer cell lines, intracellular ATP amount (CellTiter-Glo); assay type: cell-based; conditions: cultured 72 hours, all of the cell lines; FIG. 12
[3] = test system: HT1080 cell stably expressing Akt 2-PH-EGFP; experiment: Transition of Akt to the cell membrane, fluorescent immunochemical staining / confocal microscope; assay type: cell-based; conditions: treated 2 hours, FIG. 7B
Procedure: AKT2-PH-EGFP tagged with HA was inserted into a pCSII-EF1α-MCS-IRES2-Blasticidin lentivirus vector. The lentivirus was infected with a HT1080 cell, and the cell was cultured in a DMEM solution containing […] of blasticidin. For observation of the intracellular migration of PH-EGFP, phosphorylated Akt, and Akt-PH-EGFP, after culturing HT1080 cell expressing each of them on a cover glass with DMSO, LAM, ADV, ETV, and TDF for 2 hours, the cell was fixed with 3.7% formalin, and thereafter nuclear staining of phosphorylated AKt (S473) and DAPI were performed to observe under a microscope.

[4] = test system: human liver cancer cell line (HepG2); experiment: Phosphorylation of mTOR pathway proteins in HepG2 (western blot); assay type: cell-based; conditions: for phosphorylation of Akt and S6K and 4-EBP downstream thereof: HepG2, western blot
Procedure: After culturing the human liver cancer cell line (HepG2) in LAM, ETV, ADV, and TDF, phosphorylation of Akt in the mTOR pathway and S6K and 4-EBP downstream thereof was analyzed by western blot. Then, the phosphorylation of the above-mentioned proteins was suppressed in ADV and TDF in a dose-dependent manner, but there was no change in LAM and ETV.

[5] = test system: LPS-stimulated peripheral blood mononuclear cell (PBMC); experiment: Regulation of cytokine profile in LPS-stimulated PBMC (BioPlex / ELISA); assay type: cell-based, human; conditions: for IL-10 production (ELISA) / IL-12p70 production (ELISA): PBMC pretreated 2 hours at various concentrations, 100 ng/mL LPS, supernatant 24 hours after LPS
From the text: A peripheral blood mononuclear cell (PBMC) was separated from blood collected from a healthy volunteer (HV) and a chronic hepatitis B patient by a concentration gradient method. CD3+ T cell, CD19+B cell, CD56+NK cell, and CD14+ monocyte were respectively separated using magnetic antibodies.

p70S6K = experiment: Phosphorylation of p70S6K in LPS-stimulated CD14+ monocyte (western blot); conditions: 100 ng/mL LPS, cell collected 2 hours after LPS, FIG. 4C
HepG2 = experiment: Subcutaneous HepG2 tumor in immunodeficient mice (NOD-SCID); assay type: in vivo, mouse; conditions: 90 mg/kg intraperitoneally every 3 days; for subcutaneous tumor diameter: measured 6 weeks after, vs DMSO group, p<0.05 or p<0.005, data not disclosed
Procedure: 90 mg/kg of DMSO (negative control), ETV, ADV, and TDF were intraperitoneally administered to 6-week-old immunodeficient mice (NOD-SCID), respectively (5 animals in each of the groups), HepG2 (5×10^6 cells) was subcutaneously administered 1 week after the start of administration, and the subcutaneous tumor diameter was measured 6 weeks thereafter. Each drug was intraperitoneally administered every 3 days from the start to the end of observation.

[6] = test system: phosphatidylinositol-3 kinase and phosphoinositide-dependent kinase 1; experiment: Phosphorylation of proteins upstream of Akt in LPS-stimulated CD14+ monocyte (western blot); conditions: pretreated 2 hours, 100 ng/mL LPS, 2 hours after LPS, FIG. 7A
Procedure: An Akt inhibitor 2 (Akt-1/2) and bovine serum albumin (BSA) were respectively used as a positive control and a negative control.
The phosphorylation of several proteins upstream of Akt, such as phosphatidylinositol-3 kinase and phosphoinositide-dependent kinase 1, was analyzed.

[7] = test system: mouse liver cancer cell lines (MHCF1 and MHCF5) and a mouse colon cancer cell line (CMT-93); experiment: Phosphorylation of Akt and GSK-3β in mouse cancer cell lines (western blot); assay type: cell-based; conditions: MHCF1, MHCF5 and CMT-93, western blotting; data not disclosed
[8] = test system: CD14+ monocyte transfected with rictor siRNA; experiment: IL-10 production in CD14+ monocyte after silencing rictor (mTORC2) by siRNA; assay type: cell-based, human; conditions: pretreated 2 hours, 100 ng/mL LPS, ELISA 24 hours after LPS, FIG. 10
Procedure: The results of confirming the expression levels of rictor, raptor, and β-actin 48 hours after transfection are shown. […] Chemically synthesized nucleotide siRNA including control siRNA was obtained from Santa Cruz (Dallas, Tex., USA). A cell was transfected with siRNA using a Nucleofector kit (Lonza, Cologne, Germany).

PTEN = PTEN and pPTEN expression in CD14+ monocyte (western blot of cytosol and nuclear fractions); assay type: cell-based, human; conditions: pretreated 2 hours, FIG. 9
From the text: The results obtained by further fractionating the cell into a cytosol fraction and a nuclear fraction, and performing western blot analysis on each of the obtained fractions are shown. Poly-ADP-ribose polymerase (PARP) is the internal control of a nuclear protein, and β-actin is the internal control of the cytosol fraction. The number n is at least 3.
For the separation of the cytoplasm and the cell membrane, a MEM-PERTMPlus cell membrane protein extraction kit was used, and the protocol indicated by the product was followed. Briefly speaking, the collected cell was washed and then reacted with a buffer (to perforate the cell membrane) at 4° C. for 10 minutes. After centrifuging at 16,000 g for 15 minutes, the supernatant was collected in a new tube (cytoplasmic component). The precipitate (cell membrane) in the tube in the previous step was washed once with the above-mentioned buffer, and then reacted with a cell membrane melting buffer at 4° C. for 30 minutes while occasionally applying vibration. Thereafter, after centrifuging at 16,000 g for 15 minutes, the supernatant was collected in a new tube (cell membrane component). The cytoplasmic and nuclear components were separated using a cytoplasm/nuclear extraction kit. […]

ERK = conditions: CD14+ monocyte, 10 μM, 2 hours, 100 ng/mL LPS, 30 minutes after LPS; FIG. 4B
Akt [9] = experiment: Phosphorylation of Akt in LPS-stimulated PBMC (western blot); assay type: cell-based, human; conditions: various concentrations, cell recovered 2 hours after LPS, FIG. 7E
MSK-1 = experiment: Phosphorylation of MSK-1 in LPS-stimulated CD14+ monocyte (western blot); conditions: 10 μM, 2 hours, 100 ng/mL LPS, 30 minutes after LPS, FIG. 4B
Akt1 = Akt1 (Homo sapiens, UniProt P31749); experiment: Surface plasmon resonance analysis of binding to Akt; conditions: Akt1 fixed on CM5 sensor chip, 25° C.; FIG. 7C
Akt1, sequence (P31749 whole entry): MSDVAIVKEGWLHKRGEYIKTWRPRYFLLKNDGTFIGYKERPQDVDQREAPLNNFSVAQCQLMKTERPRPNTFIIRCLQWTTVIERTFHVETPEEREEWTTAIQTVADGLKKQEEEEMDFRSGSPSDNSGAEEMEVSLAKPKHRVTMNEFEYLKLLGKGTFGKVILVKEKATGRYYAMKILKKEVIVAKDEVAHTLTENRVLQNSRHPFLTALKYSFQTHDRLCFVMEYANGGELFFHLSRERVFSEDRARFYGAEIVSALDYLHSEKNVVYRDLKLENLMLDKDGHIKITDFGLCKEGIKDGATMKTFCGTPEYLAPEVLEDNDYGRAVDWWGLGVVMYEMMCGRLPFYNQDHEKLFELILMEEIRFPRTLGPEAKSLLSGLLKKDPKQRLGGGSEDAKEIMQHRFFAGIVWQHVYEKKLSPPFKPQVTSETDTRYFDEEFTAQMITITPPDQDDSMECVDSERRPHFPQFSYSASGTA
Procedure: The binding affinity of the peptide for the compound was analyzed using a surface plasmon resonance biosensor (Biacore X 100, GE Healthcare). Akt1 or BSA was fixed on the surface of a CM5 sensor chip using an amine coupling kit (GE Healthcare). Compounds at different concentrations, which were diluted with phosphate buffered saline containing 5% DMSO (10 mM phosphate buffer, 2.7 mM KCl, 137 mM NaCl, 0.05% surfactant P20, pH 7.4), were injected into the sensor chip at a flow rate of 20 μL/min at 25° C. for 120 seconds, and subsequently a buffer solution not containing the compounds was applied for 180 seconds. Kinetic parameters were determined by subtracting the bulk effect of DMSO using a reference flow cell and analyzing the data using Biacore X100 evaluation software (GE Healthcare).

[10] = PBMC from HV, pretreated 2 hours with nucleic acid analog, then LPS, BioPlex cytokine assay, FIG. 1A

Which “phosphorylation of Akt, dose dependence” value (Akt [1]; CD14+ monocyte, 1:3 dilution, FIG. 4D) does the source give for CC(C)OC(=O)OCOP(=O)(CO[C@H](C)Cn1cnc2c(N)ncnc21)OCOC(=O)OC(C)C [TDF, tenofovir disoproxil fumarate] here?
Its value is “inhibited the phosphorylation of Akt in a dose-dependent manner”.

And the “phosphorylation of Akt” value (Akt [1]; CD14+ monocyte, cell collected 2 hours after LPS, FIG. 4C)?
Its value is “inhibited”.

And the “LPS-mediated IL-12p70 production in combination with IFN-α” value (LPS-stimulated PBMC)?
Its value is “synergistically enhanced”.

What about the “serum IFN-λ3 value” (IFN-λ3) of the same molecule?
Its value is “high value”.

What about the IFN-λ3 induction (intestinal cell) of the same molecule?
Its IFN-λ3 induction is “induces”.

What about the “phosphorylation of GSK-3β” value (GSK-3β) of the same molecule?
Its value is “inhibited”.

And the “number of a survived cell (intracellular ATP amount)” value [2]?
Its value is “significantly reduced”.

What about the “transposition of Akt-PH to the cell membrane” value ([3]; HT1080 cell, confocal microscope) of the same molecule?
The value was “significantly inhibited”.

And the “phosphorylation of Akt (Ser 473) in HT-1080 cell” value ([3]; HT-1080 cell, anti-phospho-Akt staining)?
Its value is “inhibited”.

And the “phosphorylation of Akt and S6K and 4-EBP downstream thereof” value [4]?
The value was “suppressed”.

What about the “phosphorylation of mTOR-related protein (Akt and GSK-3β (S9))” value ([4]; HepG2 cell, western blotting, data not disclosed) of the same molecule?
The value was “suppressed”.

What about the “dose dependence of the regulation of IL-12p70, IL-10 and TNF-α” value ([5]; LPS-stimulated PBMC, 1:3 dilution, FIG. 1C) of the same molecule?
Its value is “dose dependent”.

And the “LPS-induced IL-10 production” value [5, 10]?
Its value is “inhibited”.

And the “LPS-induced IL-12p70 production” value [5, 10]?
The value was “significantly induced”.

And the “LPS-induced TNF-α production” value [5, 10]?
Its value is “significantly induced”.

What about the “phosphorylation of p70S6K” value (p70S6K) of the same molecule?
The value was “inhibited”.

And the “tumor growth in one example of the group” value (HepG2)?
Its value is “did not grow at all”.

And the subcutaneous tumor diameter (HepG2)?
The subcutaneous tumor diameter was “suppressed”.

What about the “phosphorylation of proteins upstream of Akt (phosphatidylinositol-3 kinase and phosphoinositide-dependent kinase 1)” value [6] of the same molecule?
The value was “did not inhibit”.

What about the “phosphorylation of mTOR-related protein (Akt and GSK-3β (S9))” value [7] of the same molecule?
The value was “not recognized”.

And the “restoration of the decrease in IL-10 levels by silencing rictor” value [8]?
The value was “not restored”.

And the “PTEN or pPTEN expression level” value (PTEN)?
The value was “did not affect”.

With N#CC(=C(/N)Sc1ccccc1N)/C(C#N)=C(\N)Sc1ccccc1N [U0126] as the molecule, how does the “phosphorylation of ERK” value (ERK) read?
Its value is “inhibited”.

Which results are given for C=C1[C@H](CO)[C@@H](O)C[C@@H]1n1cnc2c(=O)[nH]c(N)nc21 [ETV, entecavir]?
number of a survived cell (intracellular ATP amount) [2]: not recognized; phosphorylation of Akt and S6K and 4-EBP downstream thereof [4]: no change; LPS-induced cytokine production (IL-10, IL-12p70, and TNF-α) compared with DMSO [5, 10]: only the same effect as that of DMSO; subcutaneous tumor diameter (HepG2): not different

What does the source list for CCCCCCCCCCCCCCCCCCOP(=O)([O-])OC1CC[N+](C)(C)CC1 [perifosine]?
IL-10 production (ELISA) [5]: decreased; IL-12p70 production (ELISA) [5]: increased; phosphorylation of Akt (Akt [9]): inhibited phosphorylation of Akt in a dose-dependent manner

Which “phosphorylation of Akt” value (Akt [1]; CD14+ monocyte pretreated 2 hours at various concentrations, 2 hours after LPS, FIG. 11B) does the source give for NC(=O)c1ncn([C@@H]2O[C@H](CO)[C@@H](O)[C@H]2O)c1N [AICAR, 5-Aminoimidazole-4-carboxamide-1-β-D-ribofuranoside] here?
The value was “enhanced phosphorylation of Akt in a dose-dependent manner”.

And the “IL-10 production (ELISA)” value [5]?
Its value is “inhibited”.

What about the “IL-12p70 production (ELISA)” value [5] of the same molecule?
Its value is “induced”.

Which “phosphorylation of MSK-1” value (MSK-1) does the source give for Oc1ccc(-c2nc(-c3ccncc3)c(-c3ccc(F)cc3)[nH]2)cc1 [SB202198] here?
The value was “inhibited”.

With C[C@H](Cn1cnc2c(N)ncnc21)OCP(=O)(O)OP(=O)(O)O [TFV, tenofovir monophosphate] as the molecule, how does the “binding to the Akt protein (surface plasmon resonance biosensor)” value (Akt1) read?
Its value is “bound to the Akt protein in a dose-dependent manner”.
